In PubChem BioAssay (NCI):
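48-hour exposure; five concentrations; linearly interpolated endpoints. TGI marks complete inhibition of growth.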

Key:
Assay in all cases: NCI-60 cell line screen, 48 h
[1] = tested on: 786-0 renal
[2] = tested on: A498 renal
[3] = tested on: A549 NSCLC
[4] = tested on: ACHN renal
[5] = tested on: CCRF-CEM leukemia
[6] = tested on: COLO 205 colon
[7] = tested on: DLD-1 colon
[8] = tested on: DMS 114 small cell lung
[9] = tested on: DMS 273 small cell lung
[10] = tested on: HCT-116 colon
[11] = tested on: HCT-15 colon
[12] = tested on: HL-60(TB) leukemia
[13] = tested on: HOP-18 NSCLC
[14] = tested on: HOP-62 NSCLC
[15] = tested on: HOP-92 NSCLC
[16] = tested on: HT29 colon
[17] = tested on: IGROV1 ovarian
[18] = tested on: K-562 leukemia
[19] = tested on: KM20L2 colon
[20] = tested on: LOX IMVI melanoma
[21] = tested on: LXFL 529 NSCLC
[22] = tested on: M14 melanoma
[23] = tested on: M19-MEL melanoma
[24] = tested on: MOLT-4 leukemia
[25] = tested on: NCI-H23 lung
[26] = tested on: NCI-H460 lung
[27] = tested on: NCI-H522 lung
[28] = tested on: OVCAR-8 ovarian
[29] = tested on: RPMI-8226 leukemia
[30] = tested on: RXF 393 renal
[31] = tested on: SF-268 CNS
[32] = tested on: SF-539 CNS
[33] = tested on: SK-MEL-5 melanoma
[34] = tested on: SK-OV-3 ovarian
[35] = tested on: SN12C renal
[36] = tested on: SW-620 colon
[37] = tested on: TK-10 renal
[38] = tested on: U251 CNS
[39] = tested on: UACC-62 melanoma
[40] = tested on: UO-31 renal
[41] = tested on: XF 498 CNS
[42] = tested on: CAKI-1 renal
[43] = tested on: EKVX NSCLC
[44] = tested on: KM12 colon
[45] = tested on: NCI-H226 lung
[46] = tested on: OVCAR-3 ovarian
[47] = tested on: OVCAR-4 ovarian
[48] = tested on: OVCAR-5 ovarian
[49] = tested on: SF-295 CNS
[50] = tested on: SK-MEL-2 melanoma
[51] = tested on: SNB-75 CNS
[52] = tested on: UACC-257 melanoma

Cn1nc(-c2ccccc2)c(C(=O)/C=C/c2ccccc2)c(N2CCOCC2)c1=O
TGI [1]: 32.4 µM
TGI [2]: 35 µM
TGI [3]: > 100 µM
TGI [4]: 39.9 µM
TGI [5]: 57.2 µM
TGI [6]: 35.9 µM
TGI [7]: > 100 µM
TGI [8]: 38.2 µM
TGI [9]: 51.4 µM
TGI [10]: 32.8 µM
TGI [11]: 57 µM
TGI [12]: 32.3 µM
TGI [13]: 89.7 µM
TGI [14]: > 100 µM
TGI [15]: 27.8 µM
TGI [16]: 33 µM
TGI [17]: 52.9 µM
TGI [18]: 56 µM
TGI [19]: 42.9 µM
TGI [20]: 60.5 µM
TGI [21]: 34 µM
TGI [22]: 52.6 µM
TGI [23]: 61.2 µM
TGI [24]: 49.4 µM
TGI [25]: 45.1 µM
TGI [26]: 54.7 µM
TGI [27]: 29.9 µM
TGI [28]: > 100 µM
TGI [29]: 59.1 µM
TGI [30]: 25.9 µM
TGI [31]: 32.6 µM
TGI [32]: 39.5 µM
TGI [33]: 37.6 µM
TGI [34]: 81 µM
TGI [35]: 59.2 µM
TGI [36]: > 100 µM
TGI [37]: 89.4 µM
TGI [38]: 29.4 µM
TGI [39]: 52.9 µM
TGI [40]: 28.1 µM
TGI [41]: 30.7 µM

COc1ccc2nc3cc(Cl)ccc3c(NCCCN(CCCl)CCCl)c2c1
TGI [3]: 0.664 µM
TGI [42]: 0.123 µM
TGI [7]: > 100 µM
TGI [9]: 1.03 µM
TGI [43]: 0.539 µM
TGI [11]: 1.13 µM
TGI [12]: 0.0135 µM
TGI [13]: 9.4 µM
TGI [16]: 0.333 µM
TGI [17]: 0.479 µM
TGI [18]: 0.154 µM
TGI [44]: 0.395 µM
TGI [19]: > 100 µM
TGI [23]: 0.846 µM
TGI [45]: 0.311 µM
TGI [27]: 0.163 µM
TGI [46]: 0.295 µM
TGI [47]: 0.232 µM
TGI [48]: 0.31 µM
TGI [31]: 0.3 µM
TGI [49]: 0.505 µM
TGI [50]: 0.437 µM
TGI [34]: 1.12 µM
TGI [51]: 0.407 µM
TGI [52]: > 100 µM
TGI [40]: 1.02 µM
